Laboratory results taken from patent publication US7253144B2, “Method for producing by cell-free protein synthesis system using thioredoxin-fused protein expression vector” (Riken, priority 2002, dated 2007).

Key:
[1] = target: thioredoxin-fused β2AR-Gs and liposome complex; experiment: Ligand binding saturation experiment with [3H]DHA on reconstituted membrane fraction; set-up: species or system human; conditions: average of three independent experiments; 0 to 25 nM [3H]DHA, 25° C., 60 minutes; read-out: binding constant (Kd value), average
Description: Subsequently, PBS was added to dilute the detergent, and 10% β-dodecylmaltoside (Nacalaitesque) was added dropwise to make the final concentration 1%. […] A complex of the reconstituted thioredoxin-fused β2AR-Gs after completion of the dialysis and the liposome was centrifuged for 1 hours at 100,000×g and 4° C., and the resultant precipitation fraction (reconstituted membrane fraction) was suspended in 50 μl of an incubation buffer (75 mM Tris-HCl (pH7.4), 12.5 mM MgCl2, 2 mM EDTA).
The ligand binding saturation experiment was conducted by incubating this reconstituted membrane fraction (complex of thioredoxin-fused β2AR-Gs and liposome) together with 0 to 25 nM tritium-labeled Dihidroalprenolol ([^3H]DHA) in 200 μl as a final volume of the incubation buffer at 25° C. for 60 minutes. A competition experiment was conducted by incubating the reconstituted membrane fraction described above together with 10 nM [^3H]DHA in the presence or absence of 10^−8 to 10^−2 MAlprenolol (Sigma).

[2] = target: T1, human β2AR expressed in an insect cell (Sf9 cell) (Homo sapiens, UniProt P07550); experiment: Ligand binding saturation experiment with [3H]DHA, positive control receptor; conditions: n=1, read-out: binding constant (Kd value)
T1 construct: expressed in transfected cells; host or cells: Sf9 insect cells
T1 sequence (P07550 whole entry): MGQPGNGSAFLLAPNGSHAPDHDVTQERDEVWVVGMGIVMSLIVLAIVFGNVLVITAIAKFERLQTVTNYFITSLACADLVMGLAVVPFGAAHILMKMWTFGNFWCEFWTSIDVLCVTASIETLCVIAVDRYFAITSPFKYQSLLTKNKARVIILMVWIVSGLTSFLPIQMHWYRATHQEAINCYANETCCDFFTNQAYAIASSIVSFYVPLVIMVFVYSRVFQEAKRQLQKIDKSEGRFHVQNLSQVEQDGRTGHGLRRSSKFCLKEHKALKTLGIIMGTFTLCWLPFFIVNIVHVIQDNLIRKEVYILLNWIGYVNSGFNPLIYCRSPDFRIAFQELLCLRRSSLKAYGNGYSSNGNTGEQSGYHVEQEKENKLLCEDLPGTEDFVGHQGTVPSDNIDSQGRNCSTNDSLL

Compound: CCCc1ccccc1OCC(O)CNC(C)C (centres unmarked) [[^3H]DHA, Dihidroalprenolol]
- Kd [1]: 5.5 ± 1.1 nM
- Kd [2]: 3.9 nM
